{"source": "patent US5607967A", "about": "“Treatment of alzheimer's disease with 5-(tetradecyloxy)-2-furan carboxylic acid” (Merck & Co., Inc., priority 1994, dated 1997)", "key": {"GR/NER chimeric receptor": {"test_system": "GR/NER chimeric receptor", "test": "Ligand dependent transcription assay, GR/NER chimeric receptor with MMTV-luciferase reporter", "type": "cell-based, human", "protocol": "To search for putative ligands for the NER receptor, the chimeric receptor GR/NER was prepared. […] Chimeric receptors were prepared in which the amino terminal portion of the mouse glucocorticoid receptor (mGR) that includes the DNA binding domain was fused to the putative ligand binding domains of the nuclear receptor NER to form the respective chimeric receptor GR/NER. The cDNA sequences coding for amino acid residues Arg^155 and Glu^156 of the hNER receptor (Shinar et al., NER, a new member of a gene family encoding the steroid hormone nuclear receptor; GENE (in press) were convened to the Xho I restriction site, which site was later used for the ligation to the GR cDNA sequences that coded for the DNA binding domain. Thus, the amino acid residues Arg^155 and Glu^156 of the NER receptor were convened to amino acid residues Ser^155 and His^156.\nThe chimera was employed in ligand dependent transactivation assays with the reporter gene MMTV-luciferase, in which the luciferase cDNA is transcribed under the control of the MMTV promoter.\n(§1) Similar hybrid receptors GR/NER, GR/NUC and GR/PPAR, in identical expression plasmid backgrounds were prepared essentially as described for the construction of the GR/mPPAR and GR/NUC chimeric receptors in Schmidt et al., \"Identification of a new member of the steroid hormone receptor superfamily that is activated by a peroxisome proliferator and fatty acids,\" Mol. Endocrinol., 6(10):1634-41, 1992, and in Boie et al., \"Enantioselective activation of the peroxisome proliferator-activated receptor\", J. Biol. Chem. 268(8):5530-4, 1993.\n(§2) Briefly, the amino terminal portion of the mouse glucocorticoid receptor (mGR), that includes the DNA binding domain was fused to the putative ligand binding domains of the nuclear receptor NER, hNUC-I (Schmidt et al., 1992), mPPAR (Issenmann and Green, 1990) to form the respective chimeric receptors GR/NER, GR/NUC and GR/PPAR. The GR/NER chimeric receptor was constructed as described for the GR/NUC and GR/PPAR hybrid receptors (Schmidt et al., 1992; Boie et al). The cDNA sequences coding for amino acids Arg^155 and Glu^156 of the NER receptor were converted to the Xho I restriction site, that was later used for the ligation to the GR cDNA sequences that coded for the DNA binding domain. Thus, converting amino acid residues Arg^155 and Glu^156 of NER receptor to amino acid residues Ser^155 and His^156."}, "[1]": {"target": "T1, GR/PPAR chimeric receptor (Mus musculus, UniProt P23204)", "T1 construct": "COS cells, MMTV-luciferase", "T1 sequence (P23204 1-468)": "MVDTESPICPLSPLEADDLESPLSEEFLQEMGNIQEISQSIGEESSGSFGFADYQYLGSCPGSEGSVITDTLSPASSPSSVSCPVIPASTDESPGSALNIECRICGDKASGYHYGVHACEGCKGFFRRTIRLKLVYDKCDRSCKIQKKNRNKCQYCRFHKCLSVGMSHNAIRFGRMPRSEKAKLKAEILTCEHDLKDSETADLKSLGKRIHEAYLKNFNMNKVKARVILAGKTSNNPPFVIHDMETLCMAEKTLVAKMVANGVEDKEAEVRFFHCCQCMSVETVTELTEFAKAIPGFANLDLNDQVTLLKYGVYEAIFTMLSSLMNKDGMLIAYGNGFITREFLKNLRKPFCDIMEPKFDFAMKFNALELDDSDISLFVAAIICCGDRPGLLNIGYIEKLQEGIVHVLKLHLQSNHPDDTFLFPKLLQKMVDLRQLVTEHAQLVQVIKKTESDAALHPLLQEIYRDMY", "T1 sequence (P06537 1-792 partner)": "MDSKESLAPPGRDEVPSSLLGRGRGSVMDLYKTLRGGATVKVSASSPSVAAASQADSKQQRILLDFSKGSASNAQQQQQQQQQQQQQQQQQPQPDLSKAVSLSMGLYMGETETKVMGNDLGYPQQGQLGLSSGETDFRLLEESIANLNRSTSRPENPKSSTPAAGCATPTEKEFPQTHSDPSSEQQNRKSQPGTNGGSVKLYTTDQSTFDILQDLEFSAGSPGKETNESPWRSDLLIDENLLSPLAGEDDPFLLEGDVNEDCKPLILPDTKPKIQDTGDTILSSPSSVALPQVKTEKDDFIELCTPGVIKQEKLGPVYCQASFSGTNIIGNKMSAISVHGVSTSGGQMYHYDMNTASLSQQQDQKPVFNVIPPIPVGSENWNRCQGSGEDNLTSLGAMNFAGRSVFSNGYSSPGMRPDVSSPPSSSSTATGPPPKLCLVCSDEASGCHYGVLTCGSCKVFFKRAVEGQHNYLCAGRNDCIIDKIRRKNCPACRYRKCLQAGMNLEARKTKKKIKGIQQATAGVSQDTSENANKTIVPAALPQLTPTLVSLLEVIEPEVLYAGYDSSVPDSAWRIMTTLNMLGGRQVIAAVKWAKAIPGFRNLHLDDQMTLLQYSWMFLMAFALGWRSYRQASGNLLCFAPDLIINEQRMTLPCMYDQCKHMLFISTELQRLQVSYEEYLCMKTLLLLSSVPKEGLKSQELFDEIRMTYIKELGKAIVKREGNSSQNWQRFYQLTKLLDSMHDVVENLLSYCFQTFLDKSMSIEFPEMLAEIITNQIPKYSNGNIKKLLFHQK", "test": "Ligand dependent transcription assay, GR/PPAR chimeric receptor with MMTV-luciferase reporter", "type": "cell-based", "protocol": "as §1, §2\nThe ligand transcription assay mediated by GR/PPAR in COS cells was performed as described in Example 4. The cells were treated with TOFA and Cerulenin at 0.1, 1, 10 and 100 μM."}, "[2]": {"test_system": "MMTV-luciferase reporter gene", "test": "Luciferase expression in cells transfected only with the MMTV-luciferase reporter gene", "type": "cell-based", "settings": "no receptor transfected"}, "[3]": {"test_system": "reporter gene under the control of the promoter of SV40", "test": "Luciferase expression with reporter gene under control of the SV40 promoter", "type": "cell-based"}, "[4]": {"test_system": "Dopamine D2 receptor antagonist (Haloperidol) induced catalepsy", "test": "Haloperidol induced catalepsy (Bar method)", "type": "in vivo, rat", "settings": "for Catalepsy Duration: TOFA 0.4 mg/kg S.C. pretreatment"}, "[5]": {"target": "T2, native mouse glucocorticoid receptor (Mus musculus, UniProt P06537)", "T2 sequence (P06537 1-792)": "T1 sequence (P06537 1-792 partner)", "test": "Transcription assay, native glucocorticoid receptor co-transfected with MMTV-luciferase reporter"}, "[6]": {"settings": "COS, read-out: Fold of stimulation GR/PPAR"}, "[7]": {"settings": "read-out: Fold of stimulation GR"}}, "note": "Entries after “also recorded” stand apart in the source; their conditions may differ. Read-outs that look alike come from different tables or passages of the source.", "data": [{"smiles": "CCCCCCCCCCCCCCOc1ccc(C(=O)O)o1", "note": "[TOFA, 5-(tetradecyloxy)-2-furan carboxylic acid]", "values": [{"measurement": "Expression mediated by GR/NER", "setting": "GR/NER chimeric receptor", "result": "stimulated expression"}, {"measurement": "Fold of stimulation GR/NER", "setting": "GR/NER chimeric receptor; 2 μM", "result": "2.35 ± 0.09", "unit": "fold"}, {"measurement": "Fold of stimulation GR/NER", "setting": "GR/NER chimeric receptor; 10 μM", "result": "3.66 ± 0.40", "unit": "fold"}, {"measurement": "Fold of stimulation GR/NER", "setting": "GR/NER chimeric receptor; 20 μM", "result": "4.82 ± 0.28", "unit": "fold"}, {"measurement": "Expression mediated by GR/PPAR", "setting": "[1]", "result": "stimulated expression"}, {"measurement": "fold induction at 0.1 µM", "setting": "[1]; [6]", "result": "1.04 ± 0.14"}, {"measurement": "fold induction at 1 µM", "setting": "[1]; [6]", "result": "2.38 ± 0.16"}, {"measurement": "fold induction at 10 µM", "setting": "[1]; [6]", "result": "4.43 ± 0.23"}, {"measurement": "fold induction at 100 µM", "setting": "[1]; [6]", "result": "4.1 ± 0.52"}, {"measurement": "fold induction at 10 µM", "setting": "[1]; read-out: Fold of stimulation GR/PPAR", "result": "4.08 ± 0.1"}, {"measurement": "Expression of luciferase, MMTV-luciferase reporter gene only", "setting": "[2]", "result": "did not stimulate the expression of luciferase"}, {"measurement": "Expression of luciferase, reporter under SV40 promoter", "setting": "[3]", "result": "did not stimulate the expression of luciferase"}, {"measurement": "Catalepsy Duration", "setting": "[4]; 24 h later 0.1 mg/kg Haloperidol", "result": "28.9 ± 4.5", "unit": "s"}, {"measurement": "Catalepsy Duration", "setting": "[4]; no challenge", "result": 0, "unit": "s"}, {"measurement": "Effect of TOFA pretreatment on Haloperidol-induced catalepsy", "setting": "[4]; TOFA 0.4 mg/kg S.C., 24 h before 0.1 mg/kg Haloperidol", "result": "did not significantly affect; also recorded: unaffected"}, {"measurement": "Expression of MMTV-luciferase reporter after co-transfection of native glucocorticoid receptor", "setting": "[5]", "result": "did not stimulate expression"}, {"measurement": "fold induction at 2 µM", "setting": "[5]; [7]", "result": "1.02 ± 0.4"}, {"measurement": "fold induction at 10 µM", "setting": "[5]; [7]", "result": "0.8 ± 0.14"}, {"measurement": "fold induction at 50 µM", "setting": "[5]; [7]", "result": "0.91 ± 0.3"}]}]}
